Values of other authors as cited in patent publication US20260297123A1, “METHODS FOR THE SYNTHESIS OF NUCLEOSIDE ANALOGUES AND NUCLEOSIDES ANALOGUES DERIVED THEREFROM” (SIMON FRASER UNIVERSITY, priority 2023, published 2026).
Like-named read-outs stand apart in the source and are kept apart here.

Settings: for pKa, H2O: values <0 and >14 extrapolated; for pKa, (DMSO) (first of several listed) / pKa, H2O (first of several listed): first value listed; for pKa, (DMSO) (second of several listed) / pKa, H2O (second of several listed): second value listed
[1] = DMSO (values in parentheses), values <0 and >35 extrapolated

Row | Compound | pKa, (DMSO) [1] | pKa, H2O (H2O) | also measured
1 | O=[N+]([O-])CSc1ccccc1 [PhSCH2X, X = NO2] | (11.8) |  | 
2 | O=C(Cc1ccccc1)c1ccccc1 [drawing 82, X = Ph] | (17.7) |  | 
3 | C[N+](C)(C)c1ccc(C(=O)O)cc1 [drawing 16, X = p-(CH3)3N^+C6H4] |  | 3.43 | 
4 | C[N+](C)(C)c1ccccc1C(=O)O [drawing 16, X = o-(CH3)3N^+C6H4] |  | 1.37 | 
5 | CC(=O)CSc1ccccc1 [drawing 77, X = SPh] | (18.7) |  | 
6 | OC(C(F)(F)F)C(F)(F)F [(CF3)2CHOH] | (17.9) |  | 
7 | N#CCS(=O)(=O)c1ccccc1 [drawing 107, X = CN] | (12.0) |  | 
8 | C1=Cc2ccccc2C1 |  | 20 | 
9 | C1CN2CCN1CC2 [DABCO] |  |  | pKa, (DMSO) (first of several listed): 2.97; pKa, (DMSO) (second of several listed): 8.93; pKa, H2O (first of several listed) (H2O): 2.97; pKa, H2O (second of several listed) (H2O): 8.82
10 | NS(=O)(=O)C(F)(F)F [CF3SO2NH2] | (9.7) |  | 
11 | OB(O)O [B(OH)3] |  | 9.23 | 
12 | O=C(CS(=O)(=O)c1ccccc1)c1ccccc1 [drawing 82, X = SO2Ph] | (11.4) |  | 
13 | O=[N+]([O-])CCc1ccccc1 [RNO2, R = CH2Bn] | (16.2) |  | 
14 | O=S(=O)(O)C(F)(F)F [CF3SO3H] | (0.3) |  | 
15 | CCC(=O)Nc1ccccc1 |  |  | pKa, (DMSO) (dmso): (21.6)
16 | N#CS [HSCN] |  | 4.00 | 
17 | N#CC[P+](c1ccccc1)(c1ccccc1)c1ccccc1 [Ph3P^+CH2CN] | (7.0) |  | 
18 | CS(=O)(=O)C(F)(F)F | (18.8) |  | 
19 | O=C(C[N+](=O)[O-])c1ccccc1 [drawing 82, X = NO2] | (7.7) |  | 
20 | CCC(=O)CC |  | 19-20 | 
21 | Oc1ccc2ccccc2c1 [2-napthol] | (17.1) |  | 
22 | COc1ccc(O)cc1 [p-OMeC6H4OH] | (19.1) | 10.20 | 
23 | O=C1CCCN1 |  | 12 | 
24 | O=[N+]([O-])c1cccc(O)c1 [m-C2NC6H4OH] |  | 8.35 | 

Row | Compound | pKa, (DMSO) [1] | pKa, H2O (H2O) | also measured
25 | CS(N)(=O)=O [MeSO2NH2] | (17.5) |  | 
26 | CC(C)O [i-PrOH] |  | 16.5 | 
27 | CN(O)C(=O)c1ccccc1 | (16.5) |  | 
28 | N#CN [NCNH2] | (16.9) |  | 
29 | CC(=O)CC(=O)c1ccccc1 [drawing 82, X = COCH3] | (12.7) |  | 
30 | N#CCC(=O)c1ccccc1 [drawing 82, X = CN] | (10.2) |  | 
31 | [O]=[Cr](=[O])([OH])[OH] [H2CrO4] |  |  | pKa, H2O (first of several listed) (H2O): −0.98; pKa, H2O (second of several listed) (H2O): 6.50
32 | O=C(O)C[N+](=O)[O-] [drawing 16, X = CH2NO2] |  | 1.68 | 
33 | CC(=O)NC(C)=O [Ac2NH] | (17.9) |  | 
34 | O=C(CSc1ccccc1)c1ccccc1 [drawing 82, X = SPh] | (16.9) |  | 
35 | NCCN |  |  | pKa, H2O (first of several listed) (H2O): 6.90; pKa, H2O (second of several listed) (H2O): 9.95
36 | O=C(O)c1cccc(Cl)c1 [drawing 16, X = m-ClC6H4] |  | 3.83 | 
37 | CCCCS [BuSH] | (17.0) | 10-11 | 
38 | N#CC1SCCCS1 [drawing 97, X = CN] | (19.1) |  | 
39 | NC(=O)C(F)(F)F [drawing 41, R = CF3] | (17.2) |  | 
40 | Br [HBt] | (0.9) |  | 
41 | Nc1ccc2ccccc2c1 [2-naphthal-N^+H3] |  | 4.16 | 
42 | O=C(O)O [drawing 16, X = HO] |  |  | pKa, H2O (first of several listed) (H2O): 3.6
43 | CCOC(=O)C[N+](C)(C)C | (20.0) |  | 
44 | CN(C)c1ccccc1 [PhN^+(Me)2H] | (2.50) | 5.20 | 
45 | CC[N+](=O)[O-] [RNO2, R = CH2Me] | (16.7) |  | 
46 | OCl [HOCl] |  | 7.5 | 
47 | CC(=O)C(C)(C)C |  |  | pKa, (DMSO) (dmso): (27.7)
48 | OCC(F)(F)F [CF3CH2OH] |  | 12.5 | 

Row | Compound | pKa, (DMSO) [1] | pKa, H2O (H2O) | also measured
49 | CN(C)C(=N)N(C)C | (13.5) |  | 
50 | O=[N+]([O-])CS(=O)(=O)c1ccccc1 [drawing 107, X = NO2] | (7.1) |  | 
51 | Oc1ccccn1 | (17.0) |  | 
52 | ON=C(c1ccccc1)c1ccccc1 |  | 11.3 | 
53 | F [HF] | (15) | 3.17 | 
54 | O=C(O)C(Cl)(Cl)Cl [drawing 16, X = CCl3] |  | 0.65 | 
55 | NS(=O)(=O)c1ccccc1 [PhSO2NH2] | (16.1) |  | 
56 | CC(=O)CS(=O)(=O)c1ccccc1 [drawing 107, X = COMe] | (12.5) |  | 
57 | O=C(C[Se]c1ccccc1)c1ccccc1 [drawing 82, X = SePh] | (18.6) |  | 
58 | CO [MeOH] |  | 15.54 | 
59 | O=S(O)O [H2SO3] |  |  | pKa, H2O (first of several listed) (H2O): 1.9; pKa, H2O (second of several listed) (H2O): 7.21
60 | O=[N+]([O-])c1ccc(O)cc1 [p-O2NC6H4OH] | (10.8) | 7.14 | 
61 | NNC(=O)c1ccccc1 | (18.9) |  | 
62 | C1CCC2=NCCCN2CC1 [DBU] |  |  | pKa, (DMSO) (dmso): (12) (estimate)
63 | O=C1NC(=O)c2ccccc21 |  | 6.30 | 
64 | NNS(=O)(=O)c1ccccc1 [PhSO2NHNH2] | (17.2) |  | 
65 | CS(=O)(=O)Nc1ccccc1 [MeSO2NHPh] | (12.9) |  | 
66 | CN(C)c1ccncc1 [DMAP] |  | 9.2 | 
67 | O=[N+]([O-])Cc1ccccc1 [RNO2, R = CH2Ph] | (12.2) |  | 
68 | C[N+](C)(C)CS(=O)(=O)c1ccccc1 [drawing 107, X = N^+Me3] | (19.4) |  | 
69 | CC(=O)CC(C)=O [drawing 77, X = COCH3] | (13.3) | 9 | 
70 | O=C(O)c1ccc([N+](=O)[O-])cc1 [drawing 16, X = p-O2NC6H4] |  | 3.44 | 
71 | O=C(O)c1cccc([N+](=O)[O-])c1 [drawing 16, X = m-O2NC6H4] |  | 2.45 | 
72 | CC(=O)CS(=O)(=O)c1ccccc1 [drawing 77, X = SO2Ph] | (15.1) |  | 

Row | Compound | pKa, (DMSO) [1] | pKa, H2O (H2O) | also measured
73 | C[N+](=O)[O-] [RNO2, R = CH3] | (17.2) |  | 
74 | C=CC(=O)O [drawing 17, R = H] |  | 4.25 | 
75 | C[S+](Cc1ccccc1)c1ccccc1 (centres unmarked) |  |  | pKa, (DMSO) (first of several listed): 16.2; pKa, (DMSO) (second of several listed): 16.3
76 | O=NO [HNO2] |  | 3.29 | 
77 | COO [MeOOH] |  | 11.5 | 
78 | O=S(=O)(CSc1ccccc1)C(F)(F)F [PhSCH2X, X = SO2CF3] | (11.0) |  | 
79 | CC(C)(C)O [t-BuOH] |  | 17 | 
80 | O=C(NO)c1ccccc1 | (13.7) |  | pKa, H2O (NH) (H2O, NH): 8.88 (NH)
81 | CCOC(=O)CC(C)=O | (14.2) | 11 | 
82 | C[N+](C)(C)CC(=O)c1ccccc1 [drawing 82, X = N^+Me3] | (14.6) |  | 
83 | CC(C)[N+](=O)[O-] [RNO2, R = CHMe2] | (16.9) |  | 
84 | CCP(CC)CC [Et3P^+H] |  | 9.1 | 
85 | N#CCC(=O)N1CCCC1 | (17.2) |  | 
86 | c1ccc(Nc2ccccc2)cc1 [Ph2N^+H2] |  | 0.78 | 
87 | O=C(O)C(F)(F)F [drawing 16, X = CF3] |  | −0.25 | 
88 | CN(C)c1cccc2cccc(N(C)C)c12 [Proton Spong ?] |  |  | pKa, (DMSO) (second of several listed): 7.50; pKa, H2O (second of several listed) (H2O): 12.0
89 | CC(=O)Cc1ccccc1 [drawing 77, X = Ph] | (19.8) |  | 
90 | O=C(CC(=O)c1ccccc1)c1ccccc1 [drawing 82, X = COPh] | (13.3) |  | 
91 | CC(=O)OO [CH3CO3H] |  | 8.2 | 
92 | OO [HOOH] |  | 11.6 | 
93 | O=[N+]([O-])O [HNO3] |  | −1.3 | 
94 | O=C(C[P+](c1ccccc1)(c1ccccc1)c1ccccc1)c1ccccc1 [Ph3P^+CH2COPh] | (6.2) |  | 
